Results published in US20190076384A1, “METHODS FOR TREATING UREA CYCLE DISORDERS” (priority 2017, published 2019).
Where two headings read alike, the source gives them in different places.

Experiments:
[1] = biological target: T1, CYP1A2 (Homo sapiens, UniProt P05177); format: in vitro ADME; details: 7-ethoxyresorufin-O-deethylase, 5 mM
T1 construct: from tissue; host or cells: human liver microsomes
T1 sequence (P05177 1-516): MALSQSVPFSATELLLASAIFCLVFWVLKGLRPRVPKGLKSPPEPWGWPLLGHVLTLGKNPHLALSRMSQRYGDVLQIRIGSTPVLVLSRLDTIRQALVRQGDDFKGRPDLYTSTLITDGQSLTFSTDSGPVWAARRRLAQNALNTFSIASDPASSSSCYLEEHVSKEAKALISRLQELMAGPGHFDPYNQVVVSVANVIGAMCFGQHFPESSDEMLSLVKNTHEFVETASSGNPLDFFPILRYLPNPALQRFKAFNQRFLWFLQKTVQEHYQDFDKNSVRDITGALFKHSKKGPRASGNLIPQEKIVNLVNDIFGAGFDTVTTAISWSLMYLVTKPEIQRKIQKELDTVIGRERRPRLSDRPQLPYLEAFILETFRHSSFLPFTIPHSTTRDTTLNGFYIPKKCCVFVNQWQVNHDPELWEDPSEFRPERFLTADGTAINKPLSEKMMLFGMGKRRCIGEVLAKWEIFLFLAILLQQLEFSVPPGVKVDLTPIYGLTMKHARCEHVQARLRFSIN

[2] = biological target: T2, CYP2C8 (Homo sapiens, UniProt P10632); experiment: In vitro CYP inhibition study, human liver microsomes, CYP2C8; format: in vitro ADME; details: Taxol 6α-hydroxylase, 5 mM
T2 construct: from tissue; host or cells: human liver microsomes
T2 sequence (P10632 1-490): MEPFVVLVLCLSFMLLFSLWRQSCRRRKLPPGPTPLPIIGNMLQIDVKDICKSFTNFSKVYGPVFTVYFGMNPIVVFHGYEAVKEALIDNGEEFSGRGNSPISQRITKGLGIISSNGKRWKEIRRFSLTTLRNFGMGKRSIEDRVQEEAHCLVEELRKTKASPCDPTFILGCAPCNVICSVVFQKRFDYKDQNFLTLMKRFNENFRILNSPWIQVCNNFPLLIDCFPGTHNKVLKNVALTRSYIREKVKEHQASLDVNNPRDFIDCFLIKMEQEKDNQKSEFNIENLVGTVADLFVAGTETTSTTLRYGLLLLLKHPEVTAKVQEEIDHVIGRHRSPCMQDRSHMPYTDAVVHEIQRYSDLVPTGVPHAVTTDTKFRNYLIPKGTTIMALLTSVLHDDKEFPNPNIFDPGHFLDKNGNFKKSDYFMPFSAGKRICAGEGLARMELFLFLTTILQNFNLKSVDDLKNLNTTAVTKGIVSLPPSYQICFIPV

[3] = biological target: Cytochrome P450 3A4 (Homo sapiens, UniProt P08684); experiment: clinical
Cytochrome P450 3A4, sequence (P08684 whole entry): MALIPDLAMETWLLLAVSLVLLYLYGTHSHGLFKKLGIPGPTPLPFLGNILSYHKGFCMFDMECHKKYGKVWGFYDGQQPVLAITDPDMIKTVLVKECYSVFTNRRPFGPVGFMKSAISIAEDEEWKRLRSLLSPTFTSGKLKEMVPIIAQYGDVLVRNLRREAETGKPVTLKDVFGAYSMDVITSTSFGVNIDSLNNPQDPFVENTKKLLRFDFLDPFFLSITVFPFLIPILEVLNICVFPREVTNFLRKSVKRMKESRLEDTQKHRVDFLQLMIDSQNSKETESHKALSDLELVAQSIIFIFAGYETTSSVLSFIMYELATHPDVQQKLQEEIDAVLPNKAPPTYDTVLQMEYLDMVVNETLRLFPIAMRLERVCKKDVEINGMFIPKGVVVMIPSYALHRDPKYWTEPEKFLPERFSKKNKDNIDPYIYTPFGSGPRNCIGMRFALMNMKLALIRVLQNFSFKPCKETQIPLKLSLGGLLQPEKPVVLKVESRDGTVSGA
Method: Methodology: This was a Phase 1, open-label, monosequence crossover, drug-drug interaction study of RAVICTI® and midazolam in healthy male and female subjects.
Single doses of midazolam HCl syrup (2 mg/mL) were administered in the morning following an approximate 10-hour fast on Days 1 and 5 (coadministered with RAVICTI® on Day 5) just prior to administration of breakfast (˜5 minutes before breakfast).
Pharmacokinetics: Blood samples for the analysis of plasma midazolam and its metabolite (1′-OH-midazolam, free+conjugates) levels were collected via an indwelling catheter and/or via direct venipuncture. Blood samples were collected on Days 1 and 5 at the following time points: predose, 0.5, 1, 2, 3, 4, 6, 8, 10, 12, 16, and 24 hours postdose. In addition, five plasma PK samples for GPB analysis were collected on Day 4 at the following time points: at 1 minute, 30 minutes, and 1 hour following the first morning dose of RAVICTI; at 30 minutes and 1 hour post second dose of RAVICTI.
Pharmacokinetics: The possible drug-drug interaction was examined between coadministration of RAVICTI and midazolam (test) and midazolam administered alone (reference). An analysis of variance (ANOVA), with treatment as a fixed effect and subject as a random effect, was performed. Data for Cmax, AUC0-t, and AUC0-∞, as appropriate, were natural log (ln)-transformed prior to analysis. The 90% confidence intervals (CIs) of the test group means relative to the reference group means were obtained by taking the antilog of the corresponding 90% CIs for the differences between the means on the log scale, i.e., ratio of geometric least-squares (LS) means.

[4] = format: in vivo, human
[5] = biological target: Cytochrome P450 2C9 (Homo sapiens, UniProt P11712); experiment: clinical; details: multiple doses of RAVICTI
Cytochrome P450 2C9, sequence (P11712 whole entry): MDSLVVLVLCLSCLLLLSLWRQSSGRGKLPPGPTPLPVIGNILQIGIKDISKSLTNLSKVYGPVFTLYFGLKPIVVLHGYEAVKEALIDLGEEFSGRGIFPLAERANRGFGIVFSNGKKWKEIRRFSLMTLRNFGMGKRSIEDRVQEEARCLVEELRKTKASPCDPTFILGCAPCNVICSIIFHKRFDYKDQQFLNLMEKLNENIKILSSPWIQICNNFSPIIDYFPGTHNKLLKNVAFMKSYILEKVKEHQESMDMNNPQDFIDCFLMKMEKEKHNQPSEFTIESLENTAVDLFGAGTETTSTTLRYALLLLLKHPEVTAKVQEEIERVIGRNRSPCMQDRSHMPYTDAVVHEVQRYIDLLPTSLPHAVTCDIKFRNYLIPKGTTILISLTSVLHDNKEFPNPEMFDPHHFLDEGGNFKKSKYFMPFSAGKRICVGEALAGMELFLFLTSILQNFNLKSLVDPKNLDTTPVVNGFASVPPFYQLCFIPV
Method: Methodology: This was an open-label, 2-period, monosequence crossover, drug-drug interaction (DDI) study of RAVICTI and celecoxib in healthy male and female subjects.
Test Product, Dose, Duration, and Mode of Administration: In Treatment A (Period 1), subjects received 200 mg celecoxib (1×200 mg capsule) administered orally with approximately 240 mL of water following an overnight fast and approximately 5 minutes prior to the start of a standard breakfast on Day 1.
Pharmacokinetics: Blood samples (4 mL) for the analysis of plasma celecoxib were collected on Days 1 (Period 1) and 4 (Period 2) at the following time points: predose (Hour 0) and 1, 2, 3, 4, 6, 8, 12, 16, 24, 36, 48, 60, and 72 hours postdose. A blood sample (6 mL) for CYP2C9 genotyping was collected at screening to exclude any subjects with a slow metabolizer genotype (i.e., CYP2C9*2/*2, CYP2C9*2/*3, CYP2C9*1/*3, and CYP2C9*3/*3). PK parameters for celecoxib in plasma were computed following Day 1 (Period 1) and Day 4 (Period 2) blood draws and included AUC0-t, AUC0-inf, AUC%extr, Cmax, tmax, t1/2, kel, and CL/F.
Pharmacokinetics: The possible DDI was examined between co-administration of RAVICTI and celecoxib (Treatment B, test) and celecoxib administered alone (Treatment A, reference). An analysis of variance (ANOVA) was performed with treatment as a fixed effect and subject as a random effect. Data for AUC0-t, AUC0-inf, and Cmax, as appropriate, were ln-transformed prior to analysis. The 90% confidence intervals (CIs) of the test group means relative to the reference group means were obtained by taking the antilog of the corresponding 90% CIs for the differences between the means on the log scale, i.e., ratio of geometric least-squares (LS) means.

[6] = biological target: CYP2C9 (Homo sapiens, UniProt P11712); details: Diclofenac 4′-hydroxylase, 5 mM
CYP2C9, sequence (P11712 whole entry): as above

[7] = biological target: CYP2D6 (Homo sapiens, UniProt P10635); details: Bufuralol 1′-hydroxylase, 5 mM
CYP2D6, sequence (P10635 whole entry): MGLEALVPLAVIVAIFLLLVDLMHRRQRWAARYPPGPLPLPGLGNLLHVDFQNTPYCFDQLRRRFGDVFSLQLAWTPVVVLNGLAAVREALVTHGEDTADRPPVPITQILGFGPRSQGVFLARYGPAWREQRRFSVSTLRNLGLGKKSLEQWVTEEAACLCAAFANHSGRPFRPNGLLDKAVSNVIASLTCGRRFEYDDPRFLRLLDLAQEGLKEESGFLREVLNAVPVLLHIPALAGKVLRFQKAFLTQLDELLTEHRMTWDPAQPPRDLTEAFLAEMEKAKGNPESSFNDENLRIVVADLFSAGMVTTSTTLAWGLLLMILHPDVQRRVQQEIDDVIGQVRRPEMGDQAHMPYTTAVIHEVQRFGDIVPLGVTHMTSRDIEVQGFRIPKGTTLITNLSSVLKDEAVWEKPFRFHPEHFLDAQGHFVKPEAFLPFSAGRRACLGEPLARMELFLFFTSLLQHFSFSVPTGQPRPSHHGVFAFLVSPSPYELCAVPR

O=C(CCCc1ccccc1)OCC(COC(=O)CCCc1ccccc1)OC(=O)CCCc1ccccc1 [RAVICTI, benzenebutanoic acid, 1′,1″-(1,2,3-propanetriyl) ester]
% Inhibition ([1]; pre-incubation time 0 min): 5%
% Inhibition ([1]; pre-incubation time 30 min): 8%
% Inhibition ([2]; pre-incubation time 0 min): 11%
% Inhibition ([2]; pre-incubation time 30 min): 10%
drug-drug interaction by statistical analysis of Cmax, AUC0-t and AUC0-∞ ([3]; RAVICTI metabolites with midazolam and 1′-OH-midazolam, 90% CIs outside 80 to […]): significant drug-drug interaction
effect on CYP3A4 enzyme in vivo (conclusion) ([3]; steady-state RAVICTI, healthy subjects): weak inducer
Plasma glycerol phenylbutyrate concentrations ([4]; Day 4 samples, not quantifiable, LLOQ=1.00 ng/mL): < 1.00 ng/mL
Intact glycerol phenylbutyrate in plasma ([4]; healthy subjects, RAVICTI oral): not detectable
inhibition of CYP2C9 activity in vivo [5]: did not appear to inhibit
% Inhibition ([6]; pre-incubation time 0 min): 35%
% Inhibition ([6]; pre-incubation time 30 min): 19%
% Inhibition ([7]; pre-incubation time 0 min): 1%
% Inhibition ([7]; pre-incubation time 30 min): 4%
